Data from publication PMC10916402, “Meropenem-ANT3310, a unique β-lactam-β-lactamase inhibitor combination with expanded antibacterial spectrum against Gram-negative pathogens including carbapenem-resistant Acinetobacter baumannii” (Antimicrobial Agents and Chemotherapy, 2024).
≈ marks a conversion by molar mass, not a printed value. Where two headings read alike, the source gives them in different places.

Experiments:
[1] = tested on: OXA-producing Enterobacterales (OXA-CRE); assay: organism not typed; format: cell-based; details: 252 OXA-producing Enterobacterales
How it was run: (§1)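 Broth microdilution per CLSI and EUCAST in cation-adjusted Mueller Hinton broth, iron-depleted for cefiderocol; ANT3310 panels prepared fresh on test day. Isolates collected 2018–2019, identity confirmed by MALDI-TOF. MIC taken as first well without visible growth, interpreted with 2023 CLSI and EUCAST breakpoints.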

[2] = tested on: KPC-producing Enterobacterales (KPC-CRE); assay: organism not typed; format: cell-based
How it was run: as §1

[3] = tested on: A. baumannii ACC00445 (OXA-23); assay: Murine lung infection model; format: in vivo, neutropenic male CD-1 mice; details: 14-h model, MEM IV 30 mg/kg
[4] = set-up: method as in PMID 14517194, PMID 20851549; details: 2 g MEM q8h as a 3-h IV infusion; cited from earlier work
[5] = tested on: P. aeruginosa clinical isolates; assay: Broth microdilution MIC, P. aeruginosa clinical isolates; format: cell-based, Pseudomonas aeruginosa; details: 502 P. aeruginosa, 2019 global collection
Protocol: All isolates were randomly selected from the frozen culture collection of IHMA collected in 2018 and 2019. Matrix-assisted laser desorption ionization-time of flight mass spectrometry was used to confirm the identity of the organisms tested (Bruker Daltonics, Bremen, Germany).
(§2) MICs for all antimicrobial agents were determined at IHMA by broth microdilution in accordance with both CLSI ([17]) and EUCAST ([18]) guidelines. Microtiter panels were prepared by IHMA and stored at −70°C in cation-adjusted Mueller Hinton broth (CAMHB) (Becton Dickinson). Iron-depleted CAMHB was used to test cefiderocol. Panels containing ANT3310 were prepared fresh on the day of testing. […] MIC values corresponded to the first well with no visible growth. Quality control testing was performed on each day of testing with E. coli ATCC 25922, P. aeruginosa ATCC 27853, K. pneumoniae ATCC 700603 and BAA 1705, and A. baumannii NCTC 13304. MICs were interpreted using 2023 CLSI ([17]) and EUCAST ([18]) BPs.

[6] = tested on: carbapenem-resistant Acinetobacter baumannii (CRAB) clinical isolates; assay: Broth microdilution MIC, CRAB isolates; format: cell-based; details: for CLSI % Res / CLSI % Sus / EUCAST % Res / EUCAST % Sus: CRAB; for CLSI % Res / CLSI % Sus: CLSI BP; for CLSI % Res: for MEM-ANT3310 % at ≥16 µg/mL; for CLSI % Sus: for MEM-ANT3310 % inhibited at ≤8 µg/mL; for EUCAST % Res / EUCAST % Sus: EUCAST BP; for MIC90: read-out: MIC90
How it was run: as §1

[7] = tested on: A. baumannii ACC00445 (OXA-23); assay: MIC against the isolate used in the infection models; format: cell-based; details: Acinetobacter baumannii
Protocol: as §2

[8] = 180 KPC-producing Enterobacterales, EUCAST BP
[9] = 2018 Global collection, CRAB (MEM MICs >4 µg/mL), N 363
[10] = 2019 Global collection, CRAB (MEM MICs >4 µg/mL), N 340

C[C@@H](O)[C@H]1C(=O)N2C(C(=O)O)=C(S[C@@H]3CN[C@H](C(=O)N(C)C)C3)[C@H](C)[C@H]12 [MEM, meropenem]
CLSI % Sus ([1]; CLSI BP, for MEM-ANT3310 % inhibited at ≤8 µg/mL): 0%
EUCAST % Res ([1]; EUCAST BP): 74.6%
EUCAST % Sus ([1]; EUCAST BP): 10.5%
MIC50 [2]: > 32 mg/L
MIC90 [2]: > 32 mg/L
MIC90 ([2]; 180 KPC-producing Enterobacterales, 2018 global collection): >32 mg/L
CLSI % Res ([2]; 180 KPC-producing Enterobacterales, CLSI BP, for MEM-ANT3310 % at ≥16 µg/mL): 98.9%
CLSI % Sus ([2]; 180 KPC-producing Enterobacterales, CLSI BP, for MEM-ANT3310 % inhibited at ≤8 µg/mL): 0%
EUCAST % Res [2, 8]: 88.3%
EUCAST % Sus [2, 8]: 1.1%
efficacy of MEM alone [3]: No efficacy
probability of target attainment for MEM MICs ≤8 µg/mL [4]: > 90%
Number of isolates inhibited at MIC of 0.25 µg/mL [5]: 97
Number of isolates inhibited at MIC of 0.5 µg/mL [5]: 109
Number of isolates inhibited at MIC of 1 µg/mL [5]: 87
Number of isolates inhibited at MIC of 2 µg/mL [5]: 27
Number of isolates inhibited at MIC of 4 µg/mL [5]: 25
Number of isolates inhibited at MIC of 8 µg/mL [5]: 27
Number of isolates inhibited at MIC of 16 µg/mL [5]: 15
Number of isolates inhibited at MIC of 32 µg/mL [5]: 9
Number of isolates inhibited at MIC of >32 µg/mL [5]: 26
Number of isolates inhibited at MIC of ≤0.125 µg/mL [5]: 80
MIC50 ([5]; Pseudomonas aeruginosa, read-out: MIC50): 0.5 mg/L (≈ 1.3 µM)
MIC90 ([5]; Pseudomonas aeruginosa, read-out: MIC90): 8 mg/L (≈ 20.9 µM)
MIC50 [6, 9]: >32 mg/L
Number of isolates inhibited at MIC of 8 µg/mL [6, 9]: 5
Number of isolates inhibited at MIC of 16 µg/mL [6, 9]: 16
Number of isolates inhibited at MIC of 32 µg/mL [6, 9]: 64
Number of isolates inhibited at MIC of >32 µg/mL [6, 9]: 278
CLSI % Res ([6]; 2018 Global collection, N 363): 100%
CLSI % Sus ([6]; 2018 Global collection, N 363): 0%
EUCAST % Res ([6]; 2018 Global collection, N 363): 98.6%
EUCAST % Sus ([6]; 2018 Global collection, N 363): 0%
MIC50 [6, 10]: >32 mg/L
Number of isolates inhibited at MIC of 8 µg/mL [6, 10]: 9
Number of isolates inhibited at MIC of 16 µg/mL [6, 10]: 12
Number of isolates inhibited at MIC of 32 µg/mL [6, 10]: 66
Number of isolates inhibited at MIC of >32 µg/mL [6, 10]: 253
CLSI % Res ([6]; 2019 Global collection, N 340): 100%
CLSI % Sus ([6]; 2019 Global collection, N 340): 0%
EUCAST % Res ([6]; 2019 Global collection, N 340): 97.3%
EUCAST % Sus ([6]; 2019 Global collection, N 340): 0%
MIC90 ([6]; Acinetobacter baumannii, 2018 Global collection, CRAB (MEM MICs >4 µg/mL), N 363): > 32 mg/L
MIC90 ([6]; Acinetobacter baumannii, 2019 Global collection, CRAB (MEM MICs >4 µg/mL), N 340): > 32 mg/L
MIC50 ([6]; Acinetobacter baumannii, CRAB isolates 2018–2019 (n = 703), ANT3310 at 8 µg/mL, read-out: MIC50): > 32 mg/L
MIC90 ([6]; Acinetobacter baumannii, CRAB isolates 2018–2019 (n = 703), ANT3310 at 8 µg/mL): > 32 mg/L
MIC [7]: 64 mg/L (≈ 167 µM)
